Experimental data as given in patent US8946266B2, “Substituted triazole and imidazole derivatives as gamma secretase modulators” (Janssen Pharmaceuticals, Inc., priority 2009, dated 2015).

Key:
[1] = test system: Aβ42; test: γ-secretase-modulating activity, Method 1: Aβ42 sandwich ELISA in supernatant of SKNBE2 cells carrying APP 695-wild type (Table 3a); type: cell-based; conditions: 18 h, averaged IC50 values
Method: Pharmacology A) Screening of the Compounds of the Invention for γ-Secretase-Modulating Activity A1) Method 1
Screening was carried out using SKNBE2 cells carrying the APP 695-wild type, grown in Dulbecco's Modified Eagle's Medium/Nutrient mixture F-12 (DMEM/NUT-mix F-12) (HAM) provided by Gibco (cat no. 31330-38) containing 5% Serum/Fe supplemented with 1% non-essential amino acids. Cells were grown to near confluency.
The screening was performed using the assay as described in Citron et al (1997) Nature Medicine 3: 67. Briefly, cells were plated in a 96-well plate at about 10^5 cells/ml one day prior to addition of compounds. Compounds were added to the cells in Ultraculture (Lonza, BE12-725F) supplemented with 1% glutamine (Invitrogen, 25030-024) for 18 h. The media were assayed by two sandwich ELISAs, for Aβ42 and Aβtotal. Toxicity of the compounds was assayed by WST-1 cell proliferation reagent (Roche, 1 644 807) according to the manufacturer's protocol.
To quantify the amount of Aβ42 in the cell supernatant, commercially available Enzyme-Linked-Immunosorbent-Assay (ELISA) kits were used (Innotest® β-Amyloid(1-42), Innogenetics N.V., Ghent, Belgium). The Aβ42 ELISA was performed essentially according to the manufacturer's protocol. Briefly, the standards (dilutions of synthetic Aβ1-42) were prepared in polypropylene Eppendorf with final concentrations of 8000 down to 3.9 pg/ml (1/2 dilution step). Samples, standards and blanks (100 μl) were added to the anti-Aβ42-coated plate supplied with the kit (the capture antibody selectively recognizes the C-terminal end of the antigen). The plate was allowed to incubate 3 h at 25° C. in order to allow formation of the antibody-amyloid complex. Following this incubation and subsequent wash steps a selective anti-Aβ-antibody conjugate (biotinylated 3D6) was added and incubated for a minimum of 1 hour (h) in order to allow formation of the antibody-Amyloid-antibody-complex. After incubation and appropriate wash steps, a Streptavidine-Peroxidase-Conjugate was added, followed 30 minutes later by an addition of 3,3′,5,5′-tetramethylbenzidine (TMB)/peroxide mixture, resulting in the conversion of the substrate into a coloured product. This reaction was stopped by the addition of sulfuric acid (0.9 N) and the colour intensity was measured by means of photometry with an ELISA-reader with a 450 nm filter.
To obtain the values reported in Table 3a, the data were calculated as percentage of the maximum amount of amyloid Beta 42 measured in the absence of the test compound. The sigmoidal dose response curves were analyzed using non-linear regression analysis with percentage of the control plotted against the log concentration of the compound. A 4-parameter equation was used to determine the IC50. The values reported in Table 3a are averaged IC50 values.

[2] = test system: Aβtotal; test: In vivo efficacy, Method 1: brain soluble Aβtotal lowering 4 h after a single oral dose, ELISA (Table 4a); set-up: species or system mouse; conditions: dose 30 mg/kg oral dosing
From the text: To determine whether acute administration of an Aβ42 lowering agent would reduce Aβ42 levels in vivo, non-transgenic rodents, e.g. mice or rats were used. Alternatively, two to three month old Tg2576 mice expressing APP695 containing the “Swedish” variant can be used or a transgenic mouse model developed by Dr. Fred Van Leuven (K.U. Leuven, Belgium) and co-workers, with neuron-specific expression of a clinical mutant of the human amyloid precursor protein [V717I] (Moechars et al., 1999 J. Biol. Chem. 274, 6483). Young transgenic mice have high levels of Aβ in the brain but no detectable Aβ deposition. At approximately 6-8 months of age, the transgenic mice start to display spontaneous, progressive accumulation of β-amyloid (Aβ) in the brain, eventually resulting in amyloid plaques within the subiculum, hippocampus and cortex. Animals treated with the Aβ42 lowering agent were examined and compared to those untreated or treated with vehicle and brain levels of soluble Aβ42 and total Aβ would be quantitated by standard techniques, for example, using ELISA. Treatment periods varied from hours (h) to days and were adjusted based on the results of the Aβ42 lowering once a time course of onset of effect could be established.
A typical protocol for measuring Aβ42 lowering in vivo is shown but it is only one of many variations that could be used to optimize the levels of detectable Aβ. For example, Aβ42 lowering compounds were formulated in 20% of Captisol® (a sulfobutyl ether of β-cyclodextrin) in water or 20% hydroxypropyl cyclodextrin. The Aβ42 lowering agents were administered as a single oral dose or by any acceptable route of administration to overnight fasted animals. After 4 h, the animals were sacrificed and Aβ42 levels were analysed.
Blood was collected by decapitation and exsanguinations in EDTA-treated collection tubes. Blood was centrifuged at 1900 g for 10 minutes (min) at 4° C. and the plasma recovered and flash frozen for later analysis. The brain was removed from the cranium and hindbrain. The cerebellum was removed and the left and right hemisphere were separated. The left hemisphere was stored at −18° C. for quantitative analysis of test compound levels. The right hemisphere was rinsed with phosphate-buffered saline (PBS) buffer and immediately frozen on dry ice and stored at −80° C. until homogenization for biochemical assays.
Mouse brains were resuspended in 10 volumes of 0.4% DEA (diethylamine)/50 mM NaCl pH 10 (for non-transgenic animals) or 0.1% 3-[(3-cholamidopropyl)-dimethyl-ammonio]-1-propanesulfonate (CHAPS) in tris buffered saline (TBS) (for transgenic animals) containing protease inhibitors (Roche-11873580001 or 04693159001) per gram of tissue, e.g. for 0.158 g brain, add 1.58 ml of 0.4% DEA. All samples were sonicated for 30 seconds on ice at 20% power output (pulse mode). Homogenates were centrifuged at 221.300×g for 50 min. The resulting high speed supernatants were then transferred to fresh tubes and were optionally further purified before the next step. A portion of the supernatant was neutralized with 10% 0.5 M Tris-HCl and this was used to quantify Aβtotal.
To quantify the amount of Aβ42 in the soluble fraction of the brain homogenates, commercially available Enzyme-Linked-Immunosorbent-Assay (ELISA) kits were used (e.g. Innotest® β-Amyloid(1-42), Innogenetics N.V., Ghent, Belgium). The Aβ42 ELISA was performed using the plate provided with the kit only. Briefly, the standards (a dilution of synthetic Aβ1-42) were prepared in 1.5 ml Eppendorf tube in Ultraculture, with final concentrations ranging from 25000 to 1.5 pg/ml. Samples, standards and blanks (60 μl) were added to the anti-Aβ42-coated plate (the capture antibody selectively recognizes the C-terminal end of the antigen). The plate was allowed to incubate overnight at 4° C. in order to allow formation of the antibody-amyloid complex. […]

SMILES | IC50 ([1]; Homo sapiens) [nM] | Aβtotal (% Ctrl) _Mean [2] [% Ctrl] | IC50 [1] [nM]
COc1cc(-c2nc(-c3ccccc3)n(C)n2)ccc1-n1cnc(C)c1 [Compound 9] | 790 | 0 | –
COc1cc(-c2nc(C)c(-c3ccccc3)[nH]2)ccc1-n1cnc(C)c1 [Compound 11] | 110 | −4 | –
COc1cc(-c2nc(Nc3ccc(F)cc3C(F)(F)F)n(C)n2)ccc1-n1cnc(C)c1 [Compound 15] | – | 3 | 250
COc1cc(-c2nc(Nc3cccc(C(F)(F)F)c3)n(C)n2)ccc1-n1cnc(C)c1 [Compound 146] | – | 14 | –
